The values below come from publication PMC4312240 (Bioorganic & medicinal chemistry, 2014).

The test system of one test is HIV. To be noted: in words; cited from earlier work.
Test [1] deals with HBV. Particulars: in words; cited from earlier work.
The test system of test [2] is HBV. In words: Anti-HBV activity in HepG2 cells. To be noted: for Anti-HBV potency compared with DAPD prodrug 5: comparison in words. The format is cell-based.

Consider “(−)-β-D-(2R,4R)-1,3-dioxolane-2-amino-6-aminopropyl purine nucleoside phosphoramidate prodrug [Compound 4]”, for which the “Activity against HIV” value in the test on HIV is reported as “submicromolar”. For the same substance, in the test on HBV [1], the “Activity against HBV” value is reported as “submicromolar”.

As for “(2S)-ethyl 2-(((((2R,4R)-4-(2-amino-6-hydroxy-9H-purin-9-yl)-1,3-dioxolan-2-yl)methoxy)(phenoxy)phosphoryl)amino)propanoate [Compound 5]”, the “Factor of increase in potency against HBV compared with DAPD” value in the test on HBV [2] (ratio of EC50 values, DAPD vs prodrug) was 40. For the substance “(2S)-Ethyl 2-(((((2R,4R)-4-(2-amino-6-tetradecanamido-9H-purin-9-yl)-1,3-dioxolan-2-yl)methoxy)(phenoxy)phosphoryl)amino)propanoate [Compound 10g]”, the “Anti-HBV potency compared with DAPD prodrug 5” value with HBV [2] was “in the same range as DAPD prodrug 5”.

With “(2S)-Ethyl 2-(((((2R,4R)-4-(2-amino-6-palmitamido-9H-purin-9-yl)-1,3-dioxolan-2-yl)methoxy)(phenoxy)phosphoryl)amino)propanoate [Compound 10h]”, in the test on HBV [2], the “Anti-HBV potency compared with DAPD prodrug 5” value is “in the same range as DAPD prodrug 5”.
